Results from patent publication US10851064B2, “ACSS2 inhibitors and methods of use thereof” (METABOMED LTD., priority 2017, dated 2020).
Several values for one entry are separate records, joined by “and”; a condition that tells them apart may be missing. Equal entries are not always repeated.

Biological target: ACSS2 (Homo sapiens, UniProt Q9NR19)
Experiment: biochemical
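Further: Cell-free human ACSS2 enzyme reaction with acetate, CoA and ATP, 90 min at 37 C, coupled to pyrophosphatase, phosphate release detected by Biomol Green absorbance at 620 nm.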

Chain of ACSS2 (Q9NR19 whole entry): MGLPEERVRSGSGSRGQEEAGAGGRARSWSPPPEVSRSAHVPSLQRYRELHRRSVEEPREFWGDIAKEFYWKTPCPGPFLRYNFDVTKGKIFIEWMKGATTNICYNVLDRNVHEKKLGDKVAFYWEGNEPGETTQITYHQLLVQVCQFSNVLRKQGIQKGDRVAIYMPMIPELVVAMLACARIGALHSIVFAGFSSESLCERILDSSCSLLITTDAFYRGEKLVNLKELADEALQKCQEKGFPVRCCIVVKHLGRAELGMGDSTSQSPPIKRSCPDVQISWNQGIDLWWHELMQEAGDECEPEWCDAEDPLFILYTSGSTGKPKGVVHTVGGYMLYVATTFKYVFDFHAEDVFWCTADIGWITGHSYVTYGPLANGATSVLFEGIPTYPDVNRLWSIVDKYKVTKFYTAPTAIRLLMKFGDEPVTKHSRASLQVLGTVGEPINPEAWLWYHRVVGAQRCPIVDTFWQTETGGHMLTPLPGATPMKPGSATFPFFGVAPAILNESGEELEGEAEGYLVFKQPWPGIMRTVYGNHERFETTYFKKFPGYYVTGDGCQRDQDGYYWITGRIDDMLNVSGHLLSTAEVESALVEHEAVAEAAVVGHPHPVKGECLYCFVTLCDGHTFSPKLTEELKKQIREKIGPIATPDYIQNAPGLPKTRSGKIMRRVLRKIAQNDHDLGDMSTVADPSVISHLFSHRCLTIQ
Experimental: ACSS2 Cell-Free Activity Assay (Cell-Free IC50)
The assay is based on a coupling reaction with Pyrophosphatase: ACSS2 is converting ATP+CoA+Acetate=>AMP+pyrophosphate+Acetyl-CoA (Ac-CoA). Pyrophosphatase converts pyrophosphate, a product of the ACSS2 reaction, to phosphate which can be detected by measuring the absorbance at 620 nm after incubation with the Biomol green reagent (Enzo life Science, BML-AK111).
Cell-free IC50 Determination:
At the end of the reaction, Biomol Green was added for 30 minutes at RT and the activity was measured by reading the absorbance at 620 nm.

| Compound | IC50 |
| --- | --- |
| CC1=NN(c2ccc(S(=O)(=O)N(C)C)cc2)C(=O)C1C(=O)Nc1ccccc1 (centres unmarked) [compound 110, 1-(4-(N,N-dimethylsulfamoyl)phenyl)-3-methyl-5-oxo-N-phenyl-4,5-dihydro-1H-pyrazole-4-carboxamide] | 100 to 1000 nM |
| CC1=NN(c2cc(Cc3ccc(OCc4ccccc4)cc3)cc(-c3cccnc3)c2)C(=O)C1C(=O)Nc1cccc(C(C)(F)F)c1 (centres unmarked) [compound 373] | 100 to 1000 nM |
| CCC(F)(F)c1cccc(NC(=O)C2C(=O)N(c3ccc(OC(F)F)cn3)N=C2C)c1 (centres unmarked) [compound 383] | 0.01 to 6 nM |
| CC1=NN(c2cccc(C#CCNC(=O)COCCOCCOCCOCCOCC(=O)Nc3cccc4c3C(=O)N(C3CCC(=O)NC3=O)C4=O)c2)C(=O)C1C(=O)Nc1cccc(C(C)(F)F)c1 (centres unmarked) [compound 378] | 0.01 to 6 nM |
| COc1cc(Cl)cc(N(C)C(=O)C2C(=O)N(c3ccc(OC(F)F)cc3)N=C2C)c1 (centres unmarked) [compound 392] | 100 to 1000 nM |
| CC1=NN(c2cc(Br)cc(Cc3ccc(Cl)cc3)c2)C(=O)C1C(=O)Nc1cccc(C(C)(F)F)c1 (centres unmarked) [compound 388] | 0.01 to 6 nM |
| COc1ccc(N2N=C(C)C(C(=O)Nc3cccc(C(C)(F)F)c3)C2=O)cc1-c1ccc(-c2ccccc2)cc1 (centres unmarked) [compound 396] | 6 to 100 nM |
| CC1=NN(c2ccc(OC(F)F)cc2)C(=O)C1C(=O)Nc1cccc2cc[nH]c12 (centres unmarked) [compound 346] | 100 to 1000 nM |
| CC1=NN(c2ccc(OC(F)F)cc2)C(=O)C1C(=O)Nc1cc(C(C)(F)F)cc2c1COC2 (centres unmarked) [compound 397] | 100 to 1000 nM and 6 to 100 nM |
| CC1=NN(C2CCN(C)CC2)C(=O)C1C(=O)Nc1ccccc1 (centres unmarked) [compound 221, 3-methyl-1-(1-methylpiperidin-4-yl)-5-oxo-N-phenyl-4,5-dihydro-1H-pyrazole-4-carboxamide] | > 100000 nM |
| CCC(C)Oc1ccc(N2N=C(C)C(C(=O)Nc3cccc(C(C)(F)F)c3)C2=O)cc1 (centres unmarked) [compound 444] | 0.01 to 6 nM |
| CC1=NN(c2ccc(OC(F)F)cc2)C(=O)C1C(=O)N(C)c1cc(F)cc(Cl)c1 (centres unmarked) [compound 394] | 100 to 1000 nM |
| CC(=O)c1cc(NC(=O)C2C(=O)N(c3ccc(OC(F)F)cc3)N=C2C)c2[nH]ccc2c1 (centres unmarked) [compound 408] | 100 to 1000 nM |
| Cc1c(C(=O)Nc2ccccc2)c(=O)n(-c2ccccc2)n1C [compound 190, 1,5-dimethyl-3-oxo-N,2-diphenyl-2,3-dihydro-1H-pyrazole-4-carboxamide] | > 100000 nM |
| CC1=NN(c2ccccc2)C(=O)C1C(=O)Nc1cccc2ccccc12 (centres unmarked) [compound 185, 3-methyl-N-(naphthalen-1-yl)-5-oxo-1-phenyl-4,5-dihydro-1H-pyrazole-4-carboxamide] | 1000 to 100000 nM |
| CCc1cccc(NC(=O)C2C(=O)N(c3ccccc3)N=C2C(C)C)c1 (centres unmarked) [compound 128, N-(3-ethylphenyl)-3-isopropyl-5-oxo-1-phenyl-4,5-dihydro-1H-pyrazole-4-carboxamide] | 1000 to 100000 nM |
| CC1=NN(c2ccc(OC(F)F)cc2)C(=O)C1C(=O)Nc1ccc2cc[nH]c2c1 (centres unmarked) [compound 349] | 100 to 1000 nM |
| Cc1nn(-c2ccc(OC(F)F)cc2)cc1C(=O)Nc1cccc(C(C)(F)F)c1 [compound 338] | 6 to 100 nM |
| CC1=NN(c2cc(Cc3ccccc3)cc(-c3ccccc3)c2)C(=O)C1C(=O)Nc1cccc(C(C)(F)F)c1 (centres unmarked) [compound 387] | 0.01 to 6 nM |
| CC1=NN(c2cc(Cc3ccc(Cl)cc3)cc(-c3ccccc3)c2)C(=O)C1C(=O)Nc1cccc(C(C)(F)F)c1 (centres unmarked) [compound 376] | 6 to 100 nM |
| CCc1cccc(NC(=O)C2C(=O)N(c3ccc(C(F)(F)F)cc3)N=C2C)c1 (centres unmarked) [compound 127, N-(3-ethylphenyl)-3-methyl-5-oxo-1-(4-(trifluoromethyl)phenyl)-4,5-dihydro-1H-pyrazole-4-carboxamide] | 6 to 100 nM |
| COc1c(-c2ccccc2)cc(N2N=C(C)C(C(=O)Nc3cccc(C(C)(F)F)c3)C2=O)cc1-c1ccccc1 (centres unmarked) [compound 402] | 6 to 100 nM |
| COc1ccc(N2N=C(C)C(C(=O)Nc3cccc(C4COC4)c3)C2=O)cc1 (centres unmarked) [compound 354] | 6 to 100 nM |
| CC1=NN(c2ccccc2)C(=O)C1C(=O)N(C)c1ccccc1 (centres unmarked) [compound 204, N,3-dimethyl-5-oxo-N,1-diphenyl-4,5-dihydro-1H-pyrazole-4-carboxamide] | > 100000 nM |

Now from value to compound:

| IC50 | Compound |
| --- | --- |
| 0.01 to 6 nM | CC1=NN(c2ccc3ccn(-c4ccccc4)c3c2)C(=O)C1C(=O)Nc1cccc(C(C)(F)F)c1 (centres unmarked) [compound 361] |
| 0.01 to 6 nM | CC1=NN(c2cc(Br)cc(-c3ccccc3)c2)C(=O)C1C(=O)Nc1cccc(C(C)(F)F)c1 (centres unmarked) [compound 389] |
| 6 to 100 nM | CC1=NN(c2cccc(S(=O)(=O)N(C)C)c2)C(=O)C1C(=O)Nc1cccc(-c2ncc[nH]2)c1 (centres unmarked) [compound 277] |
| 1000 to 100000 nM | CC1=NN(c2ccccc2)C(=O)C1C(=O)Nc1ccc2c(c1)C(=O)OC2 (centres unmarked) [compound 122, 3-methyl-5-oxo-N-(3-oxo-1,3-dihydroisobenzofuran-5-yl)-1-phenyl-4,5-dihydro-1H-pyrazole-4-carboxamide] |
| 6 to 100 nM | CC1=NN(c2ccc(S(=O)(=O)N(C)C)cc2)C(=O)C1C(=O)Nc1cccc(-c2cnccn2)c1 (centres unmarked) [compound 262] |
| 100 to 1000 nM | COc1ccc(N2N=C(C)C(C(=O)Nc3cccc(C(C)(F)F)c3)C2=O)cc1-c1ccc[n+]([O-])c1 (centres unmarked) [compound 417] |
| 100 to 1000 nM | CC1=NN(c2ccccc2)C(=O)C1C(=O)Nc1cccc(S(=O)(=O)N(C)C)c1 (centres unmarked) [compound 139, N-(3-(N,N-dimethylsulfamoyl)phenyl)-3-methyl-5-oxo-1-phenyl-4,5-dihydro-1H-pyrazole-4-carboxamide] |
| 0.01 to 6 nM | CCC(F)(F)c1cccc(NC(=O)C2C(=O)N(c3ccc4cc[nH]c4c3)N=C2C)c1 (centres unmarked) [compound 369] |
| 6 to 100 nM | CCOC(=O)c1cccc(NC(=O)C2C(=O)N(c3ccccc3)N=C2C)c1 (centres unmarked) [compound 113, Ethyl 3-(3-methyl-5-oxo-1-phenyl-4,5-dihydro-1H-pyrazole-4-carboxamido)benzoate] |
| 0.01 to 6 nM | CCCn1ccc2ccc(N3N=C(C)C(C(=O)Nc4cccc(C(C)(F)F)c4)C3=O)cc21 (centres unmarked) [compound 363] |
| 1000 to 100000 nM | CCCCCc1cccc(NC(=O)C2C(=O)N(c3ccccc3)N=C2C)c1 (centres unmarked) [compound 118, 3-methyl-5-oxo-N-(3-pentylphenyl)-1-phenyl-4,5-dihydro-1H-pyrazole-4-carboxamide] |
| 0.01 to 6 nM | CC1=NN(c2ccc(B(O)O)cc2)C(=O)C1C(=O)Nc1cccc(C(C)(F)F)c1 (centres unmarked) [compound 421] |
| 1000 to 100000 nM | COc1ccc(NC(=O)C2C(=O)N(c3ccccc3)N=C2C)cc1 (centres unmarked) [compound 188, N-(4-methoxyphenyl)-3-methyl-5-oxo-1-phenyl-4,5-dihydro-1H-pyrazole-4-carboxamide] |
| 6 to 100 nM | CC1=NN(c2cccc(C(=O)OC(C)C)c2)C(=O)C1C(=O)Nc1cccc(-c2ncco2)c1 (centres unmarked) [compound 238] |
| 100 to 1000 nM | CC(=O)c1cccc(NC(=O)C2C(=O)N(c3ccc(C(=O)O)cc3)N=C2C)c1 (centres unmarked) [compound 120, 4-(4-((3-acetylphenyl)carbamoyl)-3-methyl-5-oxo-4,5-dihydro-1H-pyrazol-1-yl)benzoic acid] |
| 6 to 100 nM | CC1=NN(c2ccc(C(F)(F)F)cc2)C(=O)C1C(=O)Nc1cccc(-c2ncc[nH]2)c1 (centres unmarked) [compound 148, N-(3-(1H-imidazol-2-yl)phenyl)-3-methyl-5-oxo-1-(4-(trifluoromethyl)phenyl)-4,5-dihydro-1H-pyrazole-4-carboxamide] |

| IC50 | Compound |
| --- | --- |
| 0.01 to 6 nM | CC1=NN(c2ccc3[nH]ccc3c2)C(=O)C1C(=O)Nc1cccc(C(C)(F)F)c1 (centres unmarked) [compound 419] |
| 0.01 to 6 nM | CCC(F)(F)c1cccc(NC(=O)C2C(=O)N(c3ccc(OC)cc3)N=C2C)c1 (centres unmarked) [compound 435] |
| 1000 to 100000 nM | CC1=NN(c2ccccc2)C(=O)C1C(=O)NC(=O)c1ccccc1 (centres unmarked) [compound 207, N-benzoyl-3-methyl-5-oxo-1-phenyl-4,5-dihydro-1H-pyrazole-4-carboxamide] |
| 1000 to 100000 nM | CC1=NN(c2ccccc2)C(=O)C1C(=O)Nc1ccc(F)cc1 (centres unmarked) [compound 189, N-(4-fluorophenyl)-3-methyl-5-oxo-1-phenyl-4,5-dihydro-1H-pyrazole-4-carboxamide] |
| 0.01 to 6 nM | COc1ccc(N2N=C(C)C(C(=O)Nc3cccc(C(C)(F)F)c3)C2=O)cc1-c1ccccn1 (centres unmarked) [compound 434] |
| 100 to 1000 nM | CCOC(=O)c1cc(NC(=O)C2C(=O)N(c3ccccc3)N=C2C)ccn1 (centres unmarked) [compound 135, ethyl 4-(3-methyl-5-oxo-1-phenyl-4,5-dihydro-1H-pyrazole-4-carboxamido)picolinate] |
| 6 to 100 nM | CC(=O)NS(=O)(=O)c1cc(N2N=C(C)C(C(=O)Nc3cccc(-c4ccco4)c3)C2=O)ccc1OC(F)(F)F (centres unmarked) [compound 299] |
| 100 to 1000 nM | CC1=NN(c2ccccc2)C(=O)C1C(=O)Nc1cccc(-c2cncnc2)c1 (centres unmarked) [compound 132, 3-methyl-5-oxo-1-phenyl-N-(3-(pyrimidin-5-yl)phenyl)-4,5-dihydro-1H-pyrazole-4-carboxamide] |
| 0.01 to 6 nM | CC1=NN(c2ccc3ccn(C(C)C)c3c2)C(=O)C1C(=O)Nc1cccc(C(C)(F)F)c1 (centres unmarked) [compound 364] |
| 0.01 to 6 nM | CCCn1ccc2ccc(N3N=C(C)C(C(=O)Nc4cccc(C(F)(F)CC)c4)C3=O)cc21 (centres unmarked) [compound 359] |
| 1000 to 100000 nM | CC1=NN(c2ccccc2)C(=O)C1C(=O)Nc1cccc(CN)c1 (centres unmarked) [compound 223, N-(3-(aminomethyl)phenyl)-3-methyl-5-oxo-1-phenyl-4,5-dihydro-1H-pyrazole-4-carboxamide] |
| 100 to 1000 nM | CC1=NN(c2ccncc2)C(=O)C1C(=O)Nc1cccc(-c2ncc[nH]2)c1 (centres unmarked) [compound 233] |
| 6 to 100 nM | CC1=NN(c2cccc(C(=O)O)c2)C(=O)C1C(=O)Nc1cccc(-c2ncco2)c1 (centres unmarked) [compound 170] |
| 0.01 to 6 nM | CCC(F)(F)c1cccc(NC(=O)C2C(=O)N(c3ccc(OC(F)F)c(-c4ccccn4)c3)N=C2C)c1 (centres unmarked) [compound 377] |
| 6 to 100 nM | CC1=NN(c2cccc(CN)c2)C(=O)C1C(=O)Nc1cccc(C(C)(F)F)c1 (centres unmarked) [compound 335] |
| 6 to 100 nM | CC1=NN(c2ccc(C(F)(F)F)cc2)C(=O)C1C(=O)Nc1cccc(-c2cnccn2)c1 (centres unmarked) [compound 150, 3-methyl-5-oxo-N-(3-(pyrazin-2-yl)phenyl)-1-(4-(trifuoromethyl)phenyl)-4,5-dihydro-1H-pyrazole-4-carboxamide] |
